Results published in article PMC3914206.

Legend:
Assay type in all cases: binding
[1] = molecular target: T1, panel of 442 kinases (Homo sapiens, UniProt P27361); conditions: Compound Concentration 10 µM
T1 construct: purchased KINOMEscan
From the text: (§1) We assessed the selectivity of members of this scaffold using the KINOMEscan methodology across a near comprehensive panel of 442 kinases [[18,27]].

[2] = molecular target: T2, panel of 442 kinases (Homo sapiens, UniProt P0C264); conditions: kinase SgK110; compound concentration 10 µM
T2 construct: purchased KINOMEscan
T2 sequence (P0C264 1-359): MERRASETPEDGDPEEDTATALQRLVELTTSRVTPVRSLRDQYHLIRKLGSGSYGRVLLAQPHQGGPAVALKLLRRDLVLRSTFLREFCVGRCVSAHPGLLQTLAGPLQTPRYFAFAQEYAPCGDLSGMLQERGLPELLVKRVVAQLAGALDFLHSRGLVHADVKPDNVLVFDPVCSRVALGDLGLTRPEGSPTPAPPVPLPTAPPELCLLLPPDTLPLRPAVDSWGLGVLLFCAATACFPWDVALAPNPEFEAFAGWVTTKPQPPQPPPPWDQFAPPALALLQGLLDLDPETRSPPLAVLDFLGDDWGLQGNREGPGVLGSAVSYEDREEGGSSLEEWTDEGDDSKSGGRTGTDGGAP
From the text: as §1

[3] = molecular target: T3, panel of 442 kinases (Homo sapiens, UniProt Q13188); conditions: Compound Concentration 10 µM
T3 construct: purchased KINOMEscan
T3 sequence (Q13188 1-491): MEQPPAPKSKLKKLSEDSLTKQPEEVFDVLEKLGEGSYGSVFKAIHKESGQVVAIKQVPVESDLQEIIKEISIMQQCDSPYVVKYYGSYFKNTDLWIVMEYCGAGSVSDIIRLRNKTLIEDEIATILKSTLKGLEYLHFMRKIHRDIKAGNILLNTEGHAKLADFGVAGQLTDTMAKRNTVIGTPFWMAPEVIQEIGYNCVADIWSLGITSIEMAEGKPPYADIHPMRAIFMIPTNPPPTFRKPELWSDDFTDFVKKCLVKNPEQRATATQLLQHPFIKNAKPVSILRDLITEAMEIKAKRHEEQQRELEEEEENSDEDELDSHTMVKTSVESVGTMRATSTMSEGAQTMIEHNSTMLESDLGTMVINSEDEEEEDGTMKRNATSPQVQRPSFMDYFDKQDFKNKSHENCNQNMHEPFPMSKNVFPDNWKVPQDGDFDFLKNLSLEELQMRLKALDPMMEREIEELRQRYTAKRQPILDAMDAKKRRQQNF
From the text: as §1

T1 sequence (P27361 whole entry): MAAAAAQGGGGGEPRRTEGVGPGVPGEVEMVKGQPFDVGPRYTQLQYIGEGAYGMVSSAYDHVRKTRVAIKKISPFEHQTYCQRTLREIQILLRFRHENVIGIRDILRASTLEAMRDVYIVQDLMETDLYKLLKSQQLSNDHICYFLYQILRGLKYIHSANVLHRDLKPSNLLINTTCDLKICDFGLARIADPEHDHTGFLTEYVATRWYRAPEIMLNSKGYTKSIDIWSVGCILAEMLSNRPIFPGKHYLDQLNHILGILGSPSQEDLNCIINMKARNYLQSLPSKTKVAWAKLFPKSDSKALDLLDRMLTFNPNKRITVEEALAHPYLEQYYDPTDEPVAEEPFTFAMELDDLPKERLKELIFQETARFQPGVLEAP

Structure (SMILES)	KINOMEscan: ERK1 [1]	% Ctrl, SgK110 [2] [% Ctrl]	KINOMEscan: MST2 [3]
COc1cc(C(=O)N2CCC(N3CCN(C)CC3)CC2)ccc1Nc1ncc2c(n1)N(C)c1ccccc1C(=O)N2C [15 (LRRK2-IN-1)]	100	62	71
COc1cc(C(=O)N2CCC(N3CCN(C)CC3)CC2)ccc1Nc1ncc2c(n1)N(C1CCCC1)c1ccccc1C(=O)N2C [Compound 25, 11-cyclopentyl-2-((2-methoxy-4-(4-(4-methylpiperazin-1-yl)piperidine-1-carbonyl)phenyl)amino)-5-methyl-5H-benzo[e]pyrimido[5,4-b][1,4]diazepin-6(11H)-one]	96	43	100
CCOc1cc(C(=O)N2CCC(N3CCN(C)CC3)CC2)ccc1Nc1ncc2c(n1)N(C1CCCC1)c1ccccc1C(=O)N2C [Compound 26]	100	81	100
